Measured values reported in patent US6812223B2, “Crystalline glucosamine sulfate metal salts and processes for preparing the same” (Nicholas Piramal India Limited, priority 2000, dated 2004).

Experiment: Estimation of metal content in the mixed glucosamine sulphate metal salt (Inductively Coupled Plasma Method)
Assay type: physicochemical
Conditions: ICP; for Sodium content: measured at 589.592 nm; for Potassium content: measured at 766.491 nm
Experimental: Estimation of Metal Content in the Mixed Glucosamine Sulphate Metal Salt The sodium content in the mixed glucosamine sulphate sodium salt or the potassium content in the mixed glucosamine sulphate potassium salt respectively is estimated using Inductively Coupled Plasma Method. The sodium content was measured at 589.592 nm and the potassium content was measured at 766.491 nm. [table]

| Sodium content [%] | Sodium content (listed as compound I (M=Na)) [%] | Potassium content [%] | Potassium content (listed as compound I (M+K)) [%] | Substance |
| --- | --- | --- | --- | --- |
| 4.22 | 4.22 | – | – | Glucosamine Sulphate Sodium Salt (Low Sodium Content) [Example 1] |
| – | – | 7.16 | 7.16 | Glucosamine Sulphate Potassium Salt (Low Potassium Content) [Example 2] |
